Measurements as given in US20260373193A1, “CARCINOGENESIS REDUCTION WITH PENTAAZA MACROCYLIC RING COMPLEX” (GALERA LABS, LLC, priority 2023, published 2026).

How the values were obtained:
lung masses = assay: incidence of lung masses at necropsy; format: in vivo, mouse (female BALB/c); conditions: for # Lung Masses / % Yield (percentage mice with lung masses): GC4419 24 mg/kg i.p.; for occurrence of lung masses vs untreated / incidence of lung tumors vs untreated: final results (FIG. 4)
Procedure: (§1) All animal studies conducted used female BALB/c mice irradiated at 77-91 days of age and housed for a lifetime study to determine rates of carcinogenesis and survival. Animals were purchased from Charles River Laboratory, shipped to Brookhaven National Laboratory, and irradiated with the doses and ion species described below.
(§2) Animals were treated or not with GC4419. Those animals treated with GC4419 followed the following strategy. GC4419 was delivered at a dose of 24 mg/kg (mice were weighed prior to drug delivery) interperitoneally (i.p.) at roughly 45-60 minutes prior to radiation exposure. GC4419 was then provided i.p. for the next 6 days, and the animals were shipped to UT Southwestern (UTSW) Medical Center for temporary quarantine before returning to the animal facility. Upon return to UTSW the animals were treated with GC4419 i.p. weekly for another 11 weeks for a total of 12 weeks on treatment.
(§3) Radiation exposures were whole body. The galactic cosmic ray (GCR) simulation exposures used the beam line at the NASA Space Radiation Laboratory at Brookhaven National Lab (BNL) and the γ-ray exposures used a ^137Cs source at BNL. Subsequent to single dose irradiation, animals were returned to their cages.
(§4) Galactic cosmic rays (GCR) are heavy ion radiation characteristic of the deep space environment, and the GCR simulation (GCRsim) at BNL mimics the complex radiation environment in space. The GCRsim ions used are described in Table 1 below.
(§5) Pathological endpoints were also considered. Specifically, lung cancer induction, or carcinogenesis, and other tumors that are evident in numbers large enough to consider as secondary endpoints. These endpoints are described in the following tables and figure. The term “masses” is used to describe an abnormal growth, evident by eye, within a given tissue; for example, the term “lung masses” is used to describe abnormal tissues found in the lung that are collected for pathologic examination.
(§6) Given prior experience with the mouse model of radiation-induced carcinogenesis, it is expected that most, if not all, of the lung masses are tumors. For the ovarian masses, some proportion of the masses are expected to be tumors. For observations of hepatosplenomegaly, many of the enlarged livers and spleens may not reflect tumors of those organs. These may, however, may be present as result of hematologic malignancies, such as leukemias, but that was not assessed in this experiment.
Table 2 presents the incidence of lung masses observed at necropsy by treatment cohort, including preliminary data for certain γ-ray cohorts through approximately 600 days post-irradiation and for unirradiated animals treated with GC4419 (Control+GC4419) cohort through approximately 400 days post-irradiation. FIG. 4 presents final results for incidence of lung masses. […] In other words, in part GC4419 could have delayed carcinogenesis.

[1] = tested on: ovarian masses or hemorrhagic cysts; assay: incidence of ovarian masses or hemorrhagic cysts at necropsy; format: in vivo, mouse (female BALB/c); conditions: for # Ovary Masses/Cysts / % Yield (percentage of mice with ovarian masses or hemorrhagic cysts): GC4419 24 mg/kg i.p.; for occurrence of ovarian masses and hemorrhagic cysts vs untreated: final results (FIG. 4)
Procedure: as §1, §2, §3, §4, §5, §6
Table 3 presents the incidence of ovarian masses and hemorrhagic cysts observed at necropsy by treatment cohort, including preliminary data for certain γ-ray cohorts through approximately 600 days post-irradiation and for unirradiated animals treated with GC4419 (Control+GC4419) cohort through approximately 400 days post-irradiation. FIG. 4 presents final results for incidence of ovarian masses and hemorrhagic cysts.

hepatosplenomegaly = assay: incidence of hepatosplenomegaly at necropsy; format: in vivo, mouse (female BALB/c); conditions: for # Enlarged (hepatosplenomegaly) / % Yield (percentage of mice with hepatosplenomegaly): GC4419 24 mg/kg i.p.
Procedure: as §1, §2, §3, §4, §5, §6
Table 4 presents the incidence of hepatosplenomegaly observed at necropsy by treatment cohort, in general through approximately 700 days, for certain γ-ray cohorts through approximately 600 days post-irradiation, and for unirradiated animals treated with GC4419 (Control+GC4419) cohort through approximately 400 days post-irradiation.

[2] = tested on: VEGFr inhibitor-induced pulmonary disease; conditions: rat; cited from earlier work
oral mucositis = conditions: head-and-neck cancer patients, chemoradiation, Phase IIB; cited from earlier work
established tumors = conditions: cited from earlier work
[3] = unirradiated (0 Gy), 235 mice, preliminary, approx. 400 days
[4] = unirradiated (0 Gy), 235 mice, preliminary, approx. 400 days, untreated pair 10.6
[5] = γ-ray 0.75 Gy, 248 mice, preliminary for certain γ-ray cohorts (approx. 600 days)
[6] = γ-ray 1.5 Gy, 248 mice, preliminary for certain γ-ray cohorts (approx. 600 days)

[Cl][Mn][Cl].c1cc2nc(c1)CN[C@H]1CCCC[C@@H]1NCCN[C@H]1CCCC[C@@H]1NC2 [GC4419]
# Lung Masses (lung masses; GCRsim 0.4 Gy, 224 mice): 24
% Yield (percentage mice with lung masses) (lung masses; GCRsim 0.4 Gy, 224 mice, untreated pair 10.0): 10.7%
# Lung Masses (lung masses; GCRsim 0.75 Gy, 248 mice): 27
% Yield (percentage mice with lung masses) (lung masses; GCRsim 0.75 Gy, 248 mice, untreated pair 21.0): 10.9%
occurrence of lung masses vs untreated (lung masses; GCRsim 0.75 Gy, p<0.01): markedly and statistically significantly decreased occurrence of lung masses
# Lung Masses (lung masses; [3]): 1
% Yield (percentage mice with lung masses) (lung masses; [4]): 0.4%
incidence of lung tumors vs untreated (lung masses; unirradiated (Control)): absence of a clear difference
# Lung Masses (lung masses; [5]): 15
% Yield (percentage mice with lung masses) (lung masses; γ-ray 0.75 Gy, 248 mice, preliminary for certain γ-ray cohorts (approx. 600 days), untreated pair 14.7): 6.0%
occurrence of lung masses vs untreated (lung masses; γ-ray 0.75 Gy, p<0.05): markedly and statistically significantly decreased occurrence of lung masses
# Lung Masses (lung masses; [6]): 16
% Yield (percentage mice with lung masses) (lung masses; γ-ray 1.5 Gy, 248 mice, preliminary for certain γ-ray cohorts (approx. 600 days), untreated pair 11.9): 6.5%
incidence of lung tumors vs untreated (lung masses; γ-ray 1.5 Gy): absence of a clear difference
# Ovary Masses/Cysts ([1]; GCRsim 0.4 Gy, 224 mice): 26
% Yield (percentage of mice with ovarian masses or hemorrhagic cysts) ([1]; GCRsim 0.4 Gy, 224 mice, untreated pair 12.5): 11.6%
# Ovary Masses/Cysts ([1]; GCRsim 0.75 Gy, 248 mice): 43
% Yield (percentage of mice with ovarian masses or hemorrhagic cysts) ([1]; GCRsim 0.75 Gy, 248 mice, untreated pair 24.2): 17.3%
occurrence of ovarian masses and hemorrhagic cysts vs untreated ([1]; GCRsim 0.75 Gy): markedly decreased occurrence of ovarian masses and hemorrhagic cysts
# Ovary Masses/Cysts [1, 3]: 0
% Yield (percentage of mice with ovarian masses or hemorrhagic cysts) [1, 4]: 0.0%
occurrence of ovarian masses and hemorrhagic cysts vs untreated ([1]; unirradiated): markedly decreased occurrence of ovarian masses and hemorrhagic cysts
# Ovary Masses/Cysts [1, 5]: 22
% Yield (percentage of mice with ovarian masses or hemorrhagic cysts) ([1]; γ-ray 0.75 Gy, 248 mice, preliminary for certain γ-ray cohorts (approx. 600 days), untreated pair 28.9): 8.8%
occurrence of ovarian masses and hemorrhagic cysts vs untreated ([1]; γ-ray 0.75 Gy, statistically significant, p<0.05): markedly decreased occurrence of ovarian masses and hemorrhagic cysts
# Ovary Masses/Cysts [1, 6]: 24
% Yield (percentage of mice with ovarian masses or hemorrhagic cysts) ([1]; γ-ray 1.5 Gy, 248 mice, preliminary for certain γ-ray cohorts (approx. 600 days), untreated pair 21.7): 9.6%
# Enlarged (hepatosplenomegaly) (hepatosplenomegaly; GCRsim 0.4 Gy, 224 mice, approx. 700 days): 33
% Yield (percentage of mice with hepatosplenomegaly) (hepatosplenomegaly; GCRsim 0.4 Gy, 224 mice, approx. 700 days, untreated pair 13.9): 14.7%
# Enlarged (hepatosplenomegaly) (hepatosplenomegaly; GCRsim 0.75 Gy, 248 mice, approx. 700 days): 36
% Yield (percentage of mice with hepatosplenomegaly) (hepatosplenomegaly; GCRsim 0.75 Gy, 248 mice, approx. 700 days, untreated pair 7.7): 14.5%
# Enlarged (hepatosplenomegaly) (hepatosplenomegaly; unirradiated (0 Gy), 235 mice, approx. 400 days): 1
% Yield (percentage of mice with hepatosplenomegaly) (hepatosplenomegaly; unirradiated (0 Gy), 235 mice, approx. 400 days, untreated pair 5.1): 0.4%
hepatosplenomegaly incidence vs untreated (hepatosplenomegaly; within paired cohorts): no consistent trend to increased or decreased incidence within paired cohorts
# Enlarged (hepatosplenomegaly) (hepatosplenomegaly; γ-ray 0.75 Gy, 248 mice, certain γ-ray cohorts approx. 600 days): 9
% Yield (percentage of mice with hepatosplenomegaly) (hepatosplenomegaly; γ-ray 0.75 Gy, 248 mice, certain γ-ray cohorts approx. 600 days, untreated pair 10.6): 3.6%
# Enlarged (hepatosplenomegaly) (hepatosplenomegaly; γ-ray 1.5 Gy, 248 mice, certain γ-ray cohorts approx. 600 days): 17
% Yield (percentage of mice with hepatosplenomegaly) (hepatosplenomegaly; γ-ray 1.5 Gy, 248 mice, certain γ-ray cohorts approx. 600 days, untreated pair 7.5): 6.8%
pulmonary disease [2]: attenuate VEGFr inhibitor-induced pulmonary disease
oral mucositis (oral mucositis): reduce oral mucositis
efficacy of radiation and other therapies (established tumors): enhance the efficacy of radiation and other therapies
